Measured values as given in US20240393292A1, “ALLERGY ANTIGEN AND EPITOPE THEREOF” (HOYU CO., LTD., priority 2019, published 2024).

System: IgE antibodies from patients
Test: Wheat epitope mapping (2): overlapping 10-amino-acid peptide fragments shifted by one amino acid;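 as to Rank of partial sequence as epitope binding to IgE antibody: key = sequence deemed particularly important within the common 15-residue sequence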
Type: binding, human
Conditions: sequence without X
Procedure: The peptides to be synthesized were shifted by one amino acid.
The library was prepared by the same procedure as described above in (A), and the presence or absence of binding of an IgE antibody present in the serum of a patient to each peptide fragment was measured by the same technique as described above. Numeric values determined from images obtained as a result of carrying out only the procedures (1) and (4) to (6) described above in the subsection titled (3) Spotting of cellulose-bound peptide solution were used as control values. The control value of each peptide was subtracted from numeric values determined from images obtained from results about the serum of patients, and the obtained value of the difference was compared with values of the peptides serving as the basis of overlapping.
Chemiluminescence intensity in images obtained by measurement was converted into a numeric value in the same manner as in (A). Numeric values determined from images obtained as a result of carrying out only the procedures (1) and (4) to (6) described above in the subsection titled (3) Spotting of cellulose-bound peptide solution (secondary antibody measurement values) were used as control values. The control value of each peptide was subtracted from numeric values determined from images obtained from results about the serum of patients. When values obtained using the sequences (SEQ ID NOs: 29, 131, 191, 281, 346, 414, 493, 562, 640, 706, 776, 899, 974, 1010, 1089, 1142, 1166, 1209, 1257, 1297, 1367, 1403, 1508, 1566, 1598, 1608, 1685, 1753, 1789, 1836, 1895, 1977, 2004, 2027, 2068, 2154, 2217, 2265, 2309, 2342, 2419, 2491, 2545, 2613, 2631, 2674, 2701, 2774, 2809 and 2830) serving as the basis of overlapping were defined as 100%, it was determined that: a peptide having a value of the difference that was less than 30% had no binding activity against IgE antibodies; a peptide having a value of the difference that was 30% or more and less than 50% had binding activity, albeit poor, against IgE antibodies; a peptide having a value of the difference that was 50% or more and less than 70% had binding activity, albeit somewhat poor, against IgE antibodies; and a peptide having a value of the difference that was 70% or more had equivalent or good binding activity against IgE antibodies and was thus a peptide had remaining binding activity against IgE antibodies.

## 1383 (PPQQQ; REGION 1..5: note = epitope) [compound 1383]
Serum of patient P12 (WDEIA)
  Epitope sequence binding to IgE antibody, rank of the sequence: Key

## 1385 (KPWQQQPLP; REGION 1..9: note = epitope) [compound 1385]
Serum of patient P14 (WDEIA)
  Epitope sequence binding to IgE antibody, rank of the sequence: Preferably

## 1388 (QQPLPPQQQ; REGION 1..9: note = epitope) [compound 1388]
Serum of patient P14 (WDEIA)
  Epitope sequence binding to IgE antibody, rank of the sequence: Preferably

## 1390 (PWQQQ; REGION 1..5: note = epitope) [compound 1390]
Serum of patient P15 (WDEIA)
  Epitope sequence binding to IgE antibody, rank of the sequence: Key

## 1391 (QPLPPQQQ; REGION 1..8: note = epitope) [compound 1391]
Serum of patient P15 (WDEIA)
  Epitope sequence binding to IgE antibody, rank of the sequence: Key

## 1393 (QPLPPQQQ; REGION 1..8: note = epitope) [compound 1393]
Serum of patient P21 (WDEIA)
  Epitope sequence binding to IgE antibody, rank of the sequence: Preferably

## 1394 (QPLP; REGION 1..4: note = epitope) [compound 1394]
Serum of patient P21 (WDEIA)
  Epitope sequence binding to IgE antibody, rank of the sequence: Key

## 1401 (KPWQQQ; REGION 1..6: note = epitope) [compound 1401]
Serum of patient P35 (WDEIA)
  Epitope sequence binding to IgE antibody, rank of the sequence: Preferably

## 1405 (YLQPQQPISQ; REGION 1..10: note = epitope) [compound 1405]
Serum of patient P2 (WDEIA)
  Epitope sequence binding to IgE antibody, rank of the sequence (Key/Preferably/More preferably/Further preferably): Key

## 1407 (YLQPQQPISQ; REGION 1..10: note = epitope) [compound 1407]
Serum of patient P3 (WDEIA)
  Epitope sequence binding to IgE antibody, rank of the sequence: Preferably

## 1409 (QPQQPISQQQ; REGION 1..10: note = epitope) [compound 1409]
Serum of patient P3 (WDEIA)
  Epitope sequence binding to IgE antibody, rank of the sequence: Preferably

## 1411 (QQPISQQQAQ; REGION 1..10: note = epitope) [compound 1411]
Serum of patient P3 (WDEIA)
  Epitope sequence binding to IgE antibody, rank of the sequence: Preferably

## 1414 (YLQPQQPISQ; REGION 1..10: note = epitope) [compound 1414]
Serum of patient P4 (WDEIA)
  Epitope sequence binding to IgE antibody, rank of the sequence: Preferably

## 1415 (YLQPQQPIS; REGION 1..9: note = epitope) [compound 1415]
Serum of patient P4 (WDEIA)
  Epitope sequence binding to IgE antibody, rank of the sequence: Key

## 1416 (YLQPQQPIS; REGION 1..9: note = epitope) [compound 1416]
Serum of patient P8 (WDEIA)
  Epitope sequence binding to IgE antibody, rank of the sequence: Key

## 1417 (QQPISQQQAQ; REGION 1..10: note = epitope) [compound 1417]
Serum of patient P8 (WDEIA)
  Epitope sequence binding to IgE antibody, rank of the sequence: Key

## 1418 (YLQPQQPISQ; REGION 1..10: note = epitope) [compound 1418]
Serum of patient P9 (WDEIA)
  Epitope sequence binding to IgE antibody, rank of the sequence: Preferably

## 1419 (YLQPQQPIS; REGION 1..9: note = epitope) [compound 1419]
Serum of patient P9 (WDEIA)
  Epitope sequence binding to IgE antibody, rank of the sequence: Key

## 1420 (SQQQA; REGION 1..5: note = epitope) [compound 1420]
Serum of patient P9 (WDEIA)
  Epitope sequence binding to IgE antibody, rank of the sequence: Key

## 1422 (YLQPQQ; REGION 1..6: note = epitope) [compound 1422]
Serum of patient P10 (WDEIA)
  Epitope sequence binding to IgE antibody, rank of the sequence: Preferably

## 1423 (YLQPQ; REGION 1..5: note = epitope) [compound 1423]
Serum of patient P10 (WDEIA)
  Epitope sequence binding to IgE antibody, rank of the sequence: Key

## 1424 (SQQQA; REGION 1..5: note = epitope) [compound 1424]
Serum of patient P10 (WDEIA)
  Epitope sequence binding to IgE antibody, rank of the sequence: Key

## 1425 (YLQPQQPIS; REGION 1..9: note = epitope) [compound 1425]
Serum of patient P12 (WDEIA)
  Epitope sequence binding to IgE antibody, rank of the sequence: Preferably

## 1426 (YLQPQ; REGION 1..5: note = epitope) [compound 1426]
Serum of patient P12 (WDEIA)
  Epitope sequence binding to IgE antibody, rank of the sequence: Key

## 1427 (YLQPQQPISQ; REGION 1..10: note = epitope) [compound 1427]
Serum of patient P14 (WDEIA)
  Rank of partial sequence as epitope binding to IgE antibody: More preferably

## 1428 (YLQPQQPIS; REGION 1..9: note = epitope) [compound 1428]
Serum of patient P14 (WDEIA)
  Rank of partial sequence as epitope binding to IgE antibody: Preferably

## 1429 (YLQPQQ; REGION 1..6: note = epitope) [compound 1429]
Serum of patient P14 (WDEIA)
  Rank of partial sequence as epitope binding to IgE antibody: Key

## 1430 (YLQPQQPIS; REGION 1..9: note = epitope) [compound 1430]
Serum of patient P15 (WDEIA)
  Rank of partial sequence as epitope binding to IgE antibody: Preferably

## 1431 (YLQPQQP; REGION 1..7: note = epitope) [compound 1431]
Serum of patient P15 (WDEIA)
  Rank of partial sequence as epitope binding to IgE antibody: Key

## 1432 (SQQQAQ; REGION 1..6: note = epitope) [compound 1432]
Serum of patient P15 (WDEIA)
  Rank of partial sequence as epitope binding to IgE antibody: Key

## 1434 (YLQPQQPI; REGION 1..8: note = epitope) [compound 1434]
Serum of patient P16 (WDEIA)
  Rank of partial sequence as epitope binding to IgE antibody: Preferably

## 1436 (LQPQQP; REGION 1..6: note = epitope) [compound 1436]
Serum of patient P16 (WDEIA)
  Rank of partial sequence as epitope binding to IgE antibody: Key

## 1437 (PQQPISQQQA; REGION 1..10: note = epitope) [compound 1437]
Serum of patient P16 (WDEIA)
  Rank of partial sequence as epitope binding to IgE antibody: Preferably

## 1439 (SQQQA; REGION 1..5: note = epitope) [compound 1439]
Serum of patient P16 (WDEIA)
  Rank of partial sequence as epitope binding to IgE antibody: Key

## 1441 (YLQPQQPISQ; REGION 1..10: note = epitope) [compound 1441]
Serum of patient P18 (WDEIA)
  Rank of partial sequence as epitope binding to IgE antibody: Preferably

## 1442 (YLQPQQPIS; REGION 1..9: note = epitope) [compound 1442]
Serum of patient P18 (WDEIA)
  Rank of partial sequence as epitope binding to IgE antibody: Key

## 1443 (SQQQA; REGION 1..5: note = epitope) [compound 1443]
Serum of patient P18 (WDEIA)
  Rank of partial sequence as epitope binding to IgE antibody: Key

## 1444 (YLQPQQPIS; REGION 1..9: note = epitope) [compound 1444]
Serum of patient P21 (WDEIA)
  Rank of partial sequence as epitope binding to IgE antibody: Preferably

## 1445 (YLQPQ; REGION 1..5: note = epitope) [compound 1445]
Serum of patient P21 (WDEIA)
  Rank of partial sequence as epitope binding to IgE antibody: Key

## 1446 (PQQPISQQQ; REGION 1..9: note = epitope) [compound 1446]
Serum of patient P21 (WDEIA)
  Rank of partial sequence as epitope binding to IgE antibody: Preferably

## 1447 (QQPISQQQ; REGION 1..8: note = epitope) [compound 1447]
Serum of patient P21 (WDEIA)
  Rank of partial sequence as epitope binding to IgE antibody: Key

## 1450 (YLQPQQPISQ; REGION 1..10: note = epitope) [compound 1450]
Serum of patient P22 (WDEIA)
  Rank of partial sequence as epitope binding to IgE antibody: Further preferably

## 1451 (LQPQQPISQ; REGION 1..9: note = epitope) [compound 1451]
Serum of patient P22 (WDEIA)
  Rank of partial sequence as epitope binding to IgE antibody: More preferably

## 1454 (QQPISQQQAQ; REGION 1..10: note = epitope) [compound 1454]
Serum of patient P22 (WDEIA)
  Rank of partial sequence as epitope binding to IgE antibody: More preferably

## 1459 (YLQPQQPISQ; REGION 1..10: note = epitope) [compound 1459]
Serum of patient P24 (WDEIA)
  Rank of partial sequence as epitope binding to IgE antibody: Further preferably

## 1460 (LQPQQPISQ; REGION 1..9: note = epitope) [compound 1460]
Serum of patient P24 (WDEIA)
  Rank of partial sequence as epitope binding to IgE antibody: More preferably

## 1463 (QQPISQQQAQ; REGION 1..10: note = epitope) [compound 1463]
Serum of patient P24 (WDEIA)
  Rank of partial sequence as epitope binding to IgE antibody: Further preferably

## 1464 (QQPISQQQA; REGION 1..9: note = epitope) [compound 1464]
Serum of patient P24 (WDEIA)
  Rank of partial sequence as epitope binding to IgE antibody: More preferably

## 1467 (YLQPQQPIS; REGION 1..9: note = epitope) [compound 1467]
Serum of patient P26 (WDEIA)
  Rank of partial sequence as epitope binding to IgE antibody: Preferably

## 1468 (YLQPQQP; REGION 1..7: note = epitope) [compound 1468]
Serum of patient P26 (WDEIA)
  Rank of partial sequence as epitope binding to IgE antibody: Key

## 1472 (YLQPQQPIS; REGION 1..9: note = epitope) [compound 1472]
Serum of patient P27 (WDEIA)
  Rank of partial sequence as epitope binding to IgE antibody: Preferably
